Bridge positions count the residues as written; N and C are the ends. Peptide text beside a SMILES is read from it.
Legend:
[1] = target: Sodium channel protein type 9 subunit alpha (Homo sapiens, UniProt Q15858); assay: Inhibition of human NaV1.7 at -140 mV holding potential by whole-cell patch clamp assay
[2] = target: Sodium channel protein type 5 subunit alpha (Homo sapiens, UniProt Q14524); assay: Inhibition of human NaV1.5 at -140 mV holding potential by whole-cell patch clamp assay
Sequence of Sodium channel protein type 5 subunit alpha (Q14524 whole entry): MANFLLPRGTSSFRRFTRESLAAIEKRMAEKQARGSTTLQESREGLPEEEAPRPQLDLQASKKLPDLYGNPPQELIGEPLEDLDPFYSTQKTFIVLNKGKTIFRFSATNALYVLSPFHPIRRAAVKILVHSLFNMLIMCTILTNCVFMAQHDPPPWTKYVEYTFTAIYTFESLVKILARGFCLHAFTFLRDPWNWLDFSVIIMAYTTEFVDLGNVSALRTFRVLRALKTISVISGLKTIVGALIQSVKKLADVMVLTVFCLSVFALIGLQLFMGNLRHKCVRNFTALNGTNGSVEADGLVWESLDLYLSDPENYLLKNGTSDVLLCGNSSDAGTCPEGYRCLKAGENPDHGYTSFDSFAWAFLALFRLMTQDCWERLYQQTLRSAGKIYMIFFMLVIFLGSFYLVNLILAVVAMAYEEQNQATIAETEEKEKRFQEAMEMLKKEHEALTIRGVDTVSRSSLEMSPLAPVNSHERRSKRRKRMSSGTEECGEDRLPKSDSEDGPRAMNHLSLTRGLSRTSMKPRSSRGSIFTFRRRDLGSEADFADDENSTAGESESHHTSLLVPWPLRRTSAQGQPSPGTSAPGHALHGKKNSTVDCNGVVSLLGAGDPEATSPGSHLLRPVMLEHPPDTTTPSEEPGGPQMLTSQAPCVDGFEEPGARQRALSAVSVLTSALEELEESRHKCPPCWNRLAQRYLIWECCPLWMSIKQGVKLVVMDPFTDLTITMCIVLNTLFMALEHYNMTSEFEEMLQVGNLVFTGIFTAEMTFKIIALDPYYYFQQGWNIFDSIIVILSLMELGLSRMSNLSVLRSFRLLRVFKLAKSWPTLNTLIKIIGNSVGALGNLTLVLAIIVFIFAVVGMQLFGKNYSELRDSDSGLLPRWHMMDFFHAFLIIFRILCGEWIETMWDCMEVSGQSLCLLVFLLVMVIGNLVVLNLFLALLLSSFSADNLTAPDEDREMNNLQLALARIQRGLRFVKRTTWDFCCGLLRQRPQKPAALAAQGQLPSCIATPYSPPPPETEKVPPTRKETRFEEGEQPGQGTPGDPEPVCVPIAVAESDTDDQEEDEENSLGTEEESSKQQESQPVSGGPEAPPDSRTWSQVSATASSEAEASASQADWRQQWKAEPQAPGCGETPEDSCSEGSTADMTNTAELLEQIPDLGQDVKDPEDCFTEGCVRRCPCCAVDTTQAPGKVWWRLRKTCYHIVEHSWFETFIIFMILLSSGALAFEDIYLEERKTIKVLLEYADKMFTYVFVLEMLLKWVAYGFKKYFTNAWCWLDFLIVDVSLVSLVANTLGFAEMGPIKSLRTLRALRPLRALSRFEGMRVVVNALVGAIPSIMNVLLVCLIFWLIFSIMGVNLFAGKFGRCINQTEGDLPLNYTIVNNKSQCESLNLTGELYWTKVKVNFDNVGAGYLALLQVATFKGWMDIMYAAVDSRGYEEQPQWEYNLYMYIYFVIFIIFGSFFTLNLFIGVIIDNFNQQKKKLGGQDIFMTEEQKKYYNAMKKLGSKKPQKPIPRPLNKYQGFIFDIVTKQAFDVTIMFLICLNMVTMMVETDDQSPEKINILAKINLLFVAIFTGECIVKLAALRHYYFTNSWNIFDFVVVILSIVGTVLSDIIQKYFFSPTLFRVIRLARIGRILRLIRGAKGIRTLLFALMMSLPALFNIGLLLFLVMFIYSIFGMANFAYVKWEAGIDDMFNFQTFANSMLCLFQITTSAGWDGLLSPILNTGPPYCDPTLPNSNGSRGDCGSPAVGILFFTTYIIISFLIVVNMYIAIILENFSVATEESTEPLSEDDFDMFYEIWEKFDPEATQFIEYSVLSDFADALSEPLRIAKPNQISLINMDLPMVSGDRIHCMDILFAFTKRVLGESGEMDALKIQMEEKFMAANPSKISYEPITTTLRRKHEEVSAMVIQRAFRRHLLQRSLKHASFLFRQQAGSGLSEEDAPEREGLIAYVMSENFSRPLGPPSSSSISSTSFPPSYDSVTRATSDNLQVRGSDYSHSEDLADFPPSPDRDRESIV

Sequence of Sodium channel protein type 9 subunit alpha (Q15858 whole entry): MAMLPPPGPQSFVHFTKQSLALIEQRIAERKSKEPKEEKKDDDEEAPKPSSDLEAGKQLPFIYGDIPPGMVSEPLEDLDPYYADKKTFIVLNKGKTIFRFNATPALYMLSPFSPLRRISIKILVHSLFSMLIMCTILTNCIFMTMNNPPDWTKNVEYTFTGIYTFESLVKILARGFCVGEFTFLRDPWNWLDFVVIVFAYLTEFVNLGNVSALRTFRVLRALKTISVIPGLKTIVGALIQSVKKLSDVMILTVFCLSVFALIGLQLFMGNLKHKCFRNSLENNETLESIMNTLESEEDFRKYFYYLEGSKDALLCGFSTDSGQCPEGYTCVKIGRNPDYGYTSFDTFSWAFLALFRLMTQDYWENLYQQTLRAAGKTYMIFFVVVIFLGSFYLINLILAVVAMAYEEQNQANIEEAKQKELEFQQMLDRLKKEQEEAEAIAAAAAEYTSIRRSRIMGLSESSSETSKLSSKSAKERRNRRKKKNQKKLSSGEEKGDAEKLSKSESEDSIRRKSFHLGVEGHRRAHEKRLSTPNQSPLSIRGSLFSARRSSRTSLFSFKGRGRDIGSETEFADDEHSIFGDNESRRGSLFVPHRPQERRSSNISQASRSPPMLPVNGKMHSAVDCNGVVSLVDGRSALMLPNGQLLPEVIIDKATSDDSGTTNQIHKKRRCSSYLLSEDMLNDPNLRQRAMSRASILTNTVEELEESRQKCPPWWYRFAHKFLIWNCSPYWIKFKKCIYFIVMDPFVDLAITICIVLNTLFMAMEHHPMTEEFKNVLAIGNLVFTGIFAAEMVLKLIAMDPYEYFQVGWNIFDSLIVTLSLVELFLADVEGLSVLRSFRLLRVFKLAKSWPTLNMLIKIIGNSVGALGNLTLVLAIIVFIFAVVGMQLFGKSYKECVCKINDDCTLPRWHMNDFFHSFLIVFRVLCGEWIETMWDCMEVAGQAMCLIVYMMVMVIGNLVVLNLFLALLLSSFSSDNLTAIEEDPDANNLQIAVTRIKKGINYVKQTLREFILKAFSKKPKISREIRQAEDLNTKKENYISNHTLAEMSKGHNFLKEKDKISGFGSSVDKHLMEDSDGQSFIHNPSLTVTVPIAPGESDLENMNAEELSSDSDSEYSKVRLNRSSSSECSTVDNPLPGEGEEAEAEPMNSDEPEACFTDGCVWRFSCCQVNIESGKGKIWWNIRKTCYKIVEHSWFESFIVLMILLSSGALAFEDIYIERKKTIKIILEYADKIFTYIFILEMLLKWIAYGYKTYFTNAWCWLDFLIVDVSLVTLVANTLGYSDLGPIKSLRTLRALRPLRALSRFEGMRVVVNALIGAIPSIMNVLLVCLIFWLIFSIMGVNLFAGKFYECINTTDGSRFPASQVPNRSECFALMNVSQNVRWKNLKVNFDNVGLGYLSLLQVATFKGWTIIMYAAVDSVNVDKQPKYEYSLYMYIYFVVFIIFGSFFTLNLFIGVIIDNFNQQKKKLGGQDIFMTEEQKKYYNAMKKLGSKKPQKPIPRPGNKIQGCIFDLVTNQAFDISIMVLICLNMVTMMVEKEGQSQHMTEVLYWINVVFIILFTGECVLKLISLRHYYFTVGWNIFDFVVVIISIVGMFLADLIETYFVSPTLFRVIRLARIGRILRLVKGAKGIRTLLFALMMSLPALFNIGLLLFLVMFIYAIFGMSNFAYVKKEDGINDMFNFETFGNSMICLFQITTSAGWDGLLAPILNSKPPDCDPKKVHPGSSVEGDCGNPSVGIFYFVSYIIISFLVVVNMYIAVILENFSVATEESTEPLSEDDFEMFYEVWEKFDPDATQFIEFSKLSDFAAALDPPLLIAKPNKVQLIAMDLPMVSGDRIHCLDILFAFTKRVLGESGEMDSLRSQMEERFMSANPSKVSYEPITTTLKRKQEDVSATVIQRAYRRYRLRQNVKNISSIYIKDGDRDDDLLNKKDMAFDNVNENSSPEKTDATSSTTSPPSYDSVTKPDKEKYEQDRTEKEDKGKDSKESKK

In the case of `CC[C@H](C)[C@@H]1NC(=O)[C@@H]2CSSC[C@@H]3NC(=O)[C@H](C(C)C)NC(=O)[C@H](CC(C)C)NC(=O)[C@H](CC(N)=O)NC(=O)[C@@H]4CCCN4C(=O)[C@H](CCCNC(=N)N)NC(=O)[C@H](CSSC[C@H](NC(=O)[C@@H](N)CC(=O)O)C(=O)N[C@@H](CC(C)C)C(=O)NCC(=O)N[C@@H](Cc4ccccc4)C(=O)N[C@@H](CCSC)C(=O)N[C@@H](CCCNC(=N)N)C(=O)N[C@@H](CCCCN)C(=O)N2)NC(=O)[C@H](CSSC[C@@H](C(=O)N[C@@H](CCCCN)C(=O)N[C@@H](Cc2ccc(O)cc2)C(=O)N[C@H](C(=O)N[C@@H](Cc2ccccc2)C(N)=O)C(C)C)NC(=O)[C@H](Cc2c[nH]c4ccccc24)NC(=O)[C@H](CCC(=O)O)NC(=O)[C@H](Cc2cnc[nH]2)NC(=O)[C@H]([C@@H](C)O)NC(=O)[C@H](CCCNC(=N)N)NC(=O)[C@H](CO)NC3=O)NC(=O)[C@H](CCCCN)NC(=O)[C@H](CC(=O)O)NC(=O)[C@H](CC(N)=O)NC(=O)[C@H](CC(=O)O)NC(=O)[C@@H]2CCCN2C1=O` (H-DCLGFMRKCIPDNDKCCRPNLVCSRTHEWCKYVF-NH2; disulfide 2-17, 9-23, 16-30), the IC50 [1] is reported as 0.029 µM and the IC50 [2] is reported as > 10 µM.

For `CC[C@H](C)[C@@H]1NC(=O)[C@@H]2CSSC[C@@H]3NC(=O)[C@H](C(C)C)NC(=O)[C@H](CC(C)C)NC(=O)[C@H](CC(N)=O)NC(=O)[C@@H]4CCCN4C(=O)[C@H](CCCNC(=N)N)NC(=O)[C@H](CSSC[C@H](NC(=O)[C@@H](N)CC(=O)O)C(=O)N[C@@H](CC(C)C)C(=O)NCC(=O)N[C@@H](C)C(=O)N[C@@H](Cc4cccc5ccccc45)C(=O)N[C@@H](CCCNC(=N)N)C(=O)N[C@@H](CCCCN)C(=O)N2)NC(=O)[C@H](CSSC[C@@H](C(=O)N[C@@H](CCCCN)C(=O)N[C@@H](Cc2ccc(O)cc2)C(=O)N[C@H](C(=O)N[C@@H](Cc2ccccc2)C(N)=O)C(C)C)NC(=O)[C@H](Cc2c[nH]c4ccccc24)NC(=O)[C@H](CCCCN)NC(=O)[C@H](Cc2cnc[nH]2)NC(=O)[C@H]([C@@H](C)O)NC(=O)[C@H](CCCNC(=N)N)NC(=O)[C@H](CO)NC3=O)NC(=O)[C@H](CCCCN)NC(=O)[C@H](CC(=O)O)NC(=O)[C@H](CC(N)=O)NC(=O)[C@H](CC(=O)O)NC(=O)[C@@H]2CCCN2C1=O`, the IC50 [1] was 0.003 µM and the IC50 [2] was 3.6 µM.

`CC[C@H](C)[C@@H]1NC(=O)[C@@H]2CSSC[C@@H]3NC(=O)[C@H](C(C)C)NC(=O)[C@H](CC(C)C)NC(=O)[C@H](CC(N)=O)NC(=O)[C@@H]4CCCN4C(=O)[C@H](CCCNC(=N)N)NC(=O)[C@H](CSSC[C@H](NC(=O)[C@@H](N)CC(=O)O)C(=O)N[C@@H](CC(C)C)C(=O)NCC(=O)N[C@@H](Cc4ccccc4)C(=O)N[C@@H](CC4CCCCC4)C(=O)N[C@@H](CCCNC(=N)N)C(=O)N[C@@H](CCCCN)C(=O)N2)NC(=O)[C@H](CSSC[C@@H](C(=O)N[C@@H](CCCCN)C(=O)N[C@@H](Cc2ccc(O)cc2)C(=O)N[C@H](C(=O)N[C@@H](Cc2ccccc2)C(N)=O)C(C)C)NC(=O)[C@H](Cc2c[nH]c4ccccc24)NC(=O)[C@H](CCCCN)NC(=O)[C@H](Cc2cnc[nH]2)NC(=O)[C@H]([C@@H](C)O)NC(=O)[C@H](CCCNC(=N)N)NC(=O)[C@H](CO)NC3=O)NC(=O)[C@H](CCCCN)NC(=O)[C@H](CC(=O)O)NC(=O)[C@H](CC(N)=O)NC(=O)[C@H](CC(=O)O)NC(=O)[C@@H]2CCCN2C1=O` showed an IC50 [1] of 0.004 µM and an IC50 [2] of 2.8 µM.

With `CC[C@H](C)[C@@H]1NC(=O)[C@@H]2CSSC[C@@H]3NC(=O)[C@H](C(C)C)NC(=O)[C@H](CC(C)C)NC(=O)[C@H](CC(N)=O)NC(=O)[C@@H]4CCCN4C(=O)[C@H](CCCNC(=N)N)NC(=O)[C@H](CSSC[C@H](NC(=O)[C@@H](N)CC(=O)O)C(=O)N[C@@H](CC(C)C)C(=O)NCC(=O)N[C@@H](Cc4ccccc4)C(=O)N[C@@H](CCSC)C(=O)N[C@@H](CCCNC(=N)N)C(=O)N[C@@H](CCCCN)C(=O)N2)NC(=O)[C@H](CSSC[C@@H](C(=O)N[C@@H](CCCCN)C(=O)N[C@@H](Cc2ccc(O)cc2)C(=O)N[C@H](C(=O)N[C@@H](Cc2ccccc2)C(N)=O)C(C)C)NC(=O)[C@H](Cc2c[nH]c4ccccc24)NC(=O)[C@H](C)NC(=O)[C@H](Cc2cnc[nH]2)NC(=O)[C@H]([C@@H](C)O)NC(=O)[C@H](CCCNC(=N)N)NC(=O)[C@H](CO)NC3=O)NC(=O)[C@H](CCCCN)NC(=O)[C@H](CC(=O)O)NC(=O)[C@H](CC(N)=O)NC(=O)[C@H](CC(=O)O)NC(=O)[C@@H]2CCCN2C1=O` (H-DCLGFMRKCIPDNDKCCRPNLVCSRTHAWCKYVF-NH2; disulfide 2-17, 9-23, 16-30) the IC50 [1] was 0.47 µM and the IC50 [2] was > 5 µM.

For `CC[C@H](C)[C@@H]1NC(=O)[C@@H]2CSSC[C@@H]3NC(=O)[C@H](C(C)C)NC(=O)[C@H](CC(C)C)NC(=O)[C@H](CC(N)=O)NC(=O)[C@@H]4CCCN4C(=O)[C@H](CCCNC(=N)N)NC(=O)[C@H](CSSC[C@H](NC(=O)[C@@H](N)CC(=O)O)C(=O)N[C@@H](CC(C)C)C(=O)NCC(=O)N[C@@H](Cc4ccccc4)C(=O)N[C@@H](CCSC)C(=O)N[C@@H](CCCNC(=N)N)C(=O)N[C@@H](CCCCN)C(=O)N2)NC(=O)[C@H](CSSC[C@@H](C(=O)N[C@@H](CCCCN)C(=O)N[C@@H](Cc2ccc(O)cc2)C(=O)N[C@H](C(=O)N[C@@H](Cc2ccccc2)C(N)=O)C(C)C)NC(=O)[C@H](Cc2c[nH]c4ccccc24)NC(=O)[C@H](CCCCN)NC(=O)[C@H](Cc2cnc[nH]2)NC(=O)[C@H]([C@@H](C)O)NC(=O)[C@H](CCCNC(=N)N)NC(=O)[C@H](CO)NC3=O)NC(=O)[C@H](CCCCN)NC(=O)[C@H](CC(=O)O)NC(=O)[C@H](C)NC(=O)[C@H](CC(=O)O)NC(=O)[C@@H]2CCCN2C1=O` (H-DCLGFMRKCIPDADKCCRPNLVCSRTHKWCKYVF-NH2; disulfide 2-17, 9-23, 16-30), the IC50 [1] was 0.19 µM and the IC50 [2] was > 5 µM.

For `CC[C@H](C)[C@@H]1NC(=O)[C@@H]2CSSC[C@@H]3NC(=O)[C@H](C(C)C)NC(=O)[C@H](CC(C)C)NC(=O)[C@H](CC(N)=O)NC(=O)[C@@H]4CCCN4C(=O)[C@H](CCCNC(=N)N)NC(=O)[C@H](CSSC[C@H](NC(=O)[C@@H](N)CC(=O)O)C(=O)N[C@@H](CC(C)C)C(=O)NCC(=O)N[C@@H](Cc4ccccc4)C(=O)N[C@@H](CCSC)C(=O)N[C@@H](CCCNC(=N)N)C(=O)N[C@@H](CCCCN)C(=O)N2)NC(=O)[C@H](CSSC[C@@H](C(=O)N[C@@H](C)C(=O)N[C@@H](Cc2ccc(O)cc2)C(=O)N[C@H](C(=O)N[C@@H](Cc2ccccc2)C(N)=O)C(C)C)NC(=O)[C@H](Cc2c[nH]c4ccccc24)NC(=O)[C@H](CCCCN)NC(=O)[C@H](Cc2cnc[nH]2)NC(=O)[C@H]([C@@H](C)O)NC(=O)[C@H](CCCNC(=N)N)NC(=O)[C@H](CO)NC3=O)NC(=O)[C@H](CCCCN)NC(=O)[C@H](CC(=O)O)NC(=O)[C@H](CC(N)=O)NC(=O)[C@H](CC(=O)O)NC(=O)[C@@H]2CCCN2C1=O` (H-DCLGFMRKCIPDNDKCCRPNLVCSRTHKWCAYVF-NH2; disulfide 2-17, 9-23, 16-30), the IC50 [1] was > 5 µM and the IC50 [2] was > 5 µM.

For `CC[C@H](C)[C@@H]1NC(=O)[C@@H]2CSSC[C@@H]3NC(=O)[C@H](C(C)C)NC(=O)[C@H](CC(C)C)NC(=O)[C@H](CC(N)=O)NC(=O)[C@@H]4CCCN4C(=O)[C@H](CCCNC(=N)N)NC(=O)[C@H](CSSC[C@H](NC(=O)[C@@H](N)CC(=O)O)C(=O)N[C@@H](CC(C)C)C(=O)NCC(=O)N[C@@H](Cc4ccccc4)C(=O)N[C@@H](CCSC)C(=O)N[C@@H](CCCNC(=N)N)C(=O)N[C@@H](C)C(=O)N2)NC(=O)[C@H](CSSC[C@@H](C(=O)N[C@@H](CCCCN)C(=O)N[C@@H](Cc2ccc(O)cc2)C(=O)N[C@H](C(=O)N[C@@H](Cc2ccccc2)C(N)=O)C(C)C)NC(=O)[C@H](Cc2c[nH]c4ccccc24)NC(=O)[C@H](CCCCN)NC(=O)[C@H](Cc2cnc[nH]2)NC(=O)[C@H]([C@@H](C)O)NC(=O)[C@H](CCCNC(=N)N)NC(=O)[C@H](CO)NC3=O)NC(=O)[C@H](CCCCN)NC(=O)[C@H](CC(=O)O)NC(=O)[C@H](CC(N)=O)NC(=O)[C@H](CC(=O)O)NC(=O)[C@@H]2CCCN2C1=O` (H-DCLGFMRACIPDNDKCCRPNLVCSRTHKWCKYVF-NH2; disulfide 2-17, 9-23, 16-30), the IC50 [1] was 0.5 µM and the IC50 [2] was > 5 µM.

`CC[C@H](C)[C@@H]1NC(=O)[C@@H]2CSSC[C@@H]3NC(=O)[C@H](C(C)C)NC(=O)[C@H](CC(C)C)NC(=O)[C@H](CC(N)=O)NC(=O)[C@@H]4CCCN4C(=O)[C@H](CCCNC(=N)N)NC(=O)[C@H](CSSC[C@H](NC(=O)[C@@H](N)CC(=O)O)C(=O)N[C@@H](CC(C)C)C(=O)NCC(=O)N[C@@H](Cc4ccccc4)C(=O)N[C@@H](CCSC)C(=O)N[C@@H](CCCNC(=N)N)C(=O)N[C@@H](CCCCN)C(=O)N2)NC(=O)[C@H](CSSC[C@@H](C(=O)N[C@@H](CCCCN)C(=O)N[C@@H](Cc2ccc(O)cc2)C(=O)N[C@H](C(=O)N[C@@H](C)C(N)=O)C(C)C)NC(=O)[C@H](Cc2c[nH]c4ccccc24)NC(=O)[C@H](CCCCN)NC(=O)[C@H](Cc2cnc[nH]2)NC(=O)[C@H]([C@@H](C)O)NC(=O)[C@H](CCCNC(=N)N)NC(=O)[C@H](CO)NC3=O)NC(=O)[C@H](CCCCN)NC(=O)[C@H](CC(=O)O)NC(=O)[C@H](CC(N)=O)NC(=O)[C@H](CC(=O)O)NC(=O)[C@@H]2CCCN2C1=O` (H-DCLGFMRKCIPDNDKCCRPNLVCSRTHKWCKYVA-NH2; disulfide 2-17, 9-23, 16-30) was tested, and the IC50 [1] was 1.2 µM and the IC50 [2] was > 5 µM.

Reference: ChEMBL document CHEMBL3414527, “Engineering potent and selective analogues of GpTx-1, a tarantula venom peptide antagonist of the Na(V)1.7 sodium channel” (J Med Chem, 2015)
